This note sets out measurements from patent US20100197502A1, “Crystalline form of [3-(4,5-dihydro-3-isoxazolyl)-2-methyl-4-(methylsulfonyl)phenyl]-(5-hydroxy-1-methyl-1H-pyrazol-4-yl)methanone” (priority 2007, published 2010).

Each structure is given as a SMILES string.

The nature of data set [1]: Stability of formulations (e.g. aqueous suspension concentrates) comprising the solid form. It counts as physicochemical. The note with it: compared between forms.
A short description of data set [2]: Stability of the solvate at room temperature (release of solvent, conversion). It counts as physicochemical. As to the method: Crystallization of topramezone by evaporation of a solution of topramezone in a mixture of toluene with dichloromethane in the volume ratio 2:1 at temperatures below 30° C., in particular at temperatures in the range from 10 to 30° C. yields an unstable solvate V-S, which comprises 1 mol of toluene per mol of topramezone.
Crystallization of topramezone by evaporation of a solution of topramezone in a mixture of chlorobenzene with dichloromethane at temperatures below 30° C., in particular at temperatures in the range from 10 to 30° C. yields an unstable solvate VI-S, which comprises 1 mol of chlorobenzene per mol of topramezone.
Crystallization of topramezone by evaporation of a solution of topramezone in dichloromethane at temperatures below 30° C., in particular at temperatures in the range from 10 to 30° C. yields an unstable solvate VII-S, which comprises dichloromethane.

Data set [3] in a line: Stability of the crystalline modification with regard to conversion into another form. The note with it: for stability of the crystalline modification: solid forms of topramezone compared.

Turning to `Cc1c(C(=O)c2cnn(C)c2O)ccc(S(C)(=O)=O)c1C1=NOCC1` [form VII-S], the “stability of formulations which comprise the form” value in data set [1] (listed as solvate VII-S) is reported as “lower stability”. The “behaviour of the solvate at room temperature” value (“behaviour of the solvate” below) in data set [2] (listed as solvate VII-S) is “releasing the solvent again and then forms the form I”. In addition, the “stability of the crystalline modification” value in data set [3] is listed as “lower stability”.
As to `Cc1c(C(=O)c2cnn(C)c2O)ccc(S(C)(=O)=O)c1C1=NOCC1` [form II, [3-(4,5-dihydro-3-isoxazolyl)-2-methyl-4-(methylsulfonyl)phenyl]-(5-hydroxy-1-methyl-1H-pyrazol-4-yl)methanone], in data set [1], the “stability of formulations which comprise the form” value is “lower stability”. For the same molecule, the “stability of the crystalline modification” value in data set [3] is given as “lower stability”.
Take `Cc1c(C(=O)c2cnn(C)c2O)ccc(S(C)(=O)=O)c1C1=NOCC1` [form V-S]: the “stability of formulations which comprise the form” value in data set [1] (listed as solvate V-S) is recorded as “lower stability”. Also, the “behaviour of the solvate” value in data set [2] (listed as solvate V-S) is “releasing the solvent again and then forms a mixture of the forms II and IV”. Further, the “stability of the crystalline modification” value in data set [3] is “lower stability”.
With `Cc1c(C(=O)c2cnn(C)c2O)ccc(S(C)(=O)=O)c1C1=NOCC1` [form IV, [3-(4,5-dihydro-3-isoxazolyl)-2-methyl-4-(methylsulfonyl)phenyl]-(5-hydroxy-1-methyl-1H-pyrazol-4-yl)methanone], the “stability of formulations which comprise the form” value in data set [1] is “lower stability”. For the same molecule, the “stability of the crystalline modification” value in data set [3] is “lower stability”.
For `Cc1c(C(=O)c2cnn(C)c2O)ccc(S(C)(=O)=O)c1C1=NOCC1` [form III, [3-(4,5-dihydro-3-isoxazolyl)-2-methyl-4-(methylsulfonyl)phenyl]-(5-hydroxy-1-methyl-1H-pyrazol-4-yl)methanone], in data set [1], the “stability of formulations which comprise the form” value is on record as “lower stability”. Besides, the “stability of the crystalline modification” value in data set [3] is on record as “lower stability”.
On to `Cc1c(C(=O)c2cnn(C)c2O)ccc(S(C)(=O)=O)c1C1=NOCC1` [form VIII, [3-(4,5-dihydro-3-isoxazolyl)-2-methyl-4-(methylsulfonyl)phenyl]-(5-hydroxy-1-methyl-1H-pyrazol-4-yl)methanone], for which the “stability of formulations which comprise the form” value in data set [1] was “lower stability”. Moreover, the “stability of the crystalline modification” value in data set [3] is “lower stability”.
Turning to `Cc1c(C(=O)c2cnn(C)c2O)ccc(S(C)(=O)=O)c1C1=NOCC1` [form VI-S], the “stability of formulations which comprise the form” value in data set [1] (listed as solvate VI-S) is reported as “lower stability”. For the same molecule, the “behaviour of the solvate” value in data set [2] (listed as solvate VI-S) was “releasing the solvent again and then forms the form II”. The “stability of the crystalline modification” value in data set [3] is recorded as “lower stability”.
Regarding `Cc1c(C(=O)c2cnn(C)c2O)ccc(S(C)(=O)=O)c1C1=NOCC1` [form I, [3-(4,5-dihydro-3-isoxazolyl)-2-methyl-4-(methylsulfonyl)phenyl]-(5-hydroxy-1-methyl-1H-pyrazol-4-yl)methanone], the “stability of formulations which comprise the form” value in data set [1] is recorded as “markedly higher”. For the same molecule, the “stability with regard to conversion into another form” value in data set [3] (compared to other solid forms) was “increased stability”. Also, in data set [3], the “stability of the crystalline modification” value is on record as “stable”.
